From patent US20260130928A1, “COMBINATION OF AKR1C3 ACTIVATED ANTICANCER PRODRUG COMPOUND AND ANALGESIC DRUG FOR TREATING CANCER PATIENTS ACCOMPANIED BY PAIN” (ASCENTAWITS PHARMACEUTICALS, LTD., priority 2022, published 2026)
Read-outs that look alike come from different tables or passages of the source. Each block holds one molecule with its values, some of them ahead of it.

What was measured:
[1] = Body weight / tolerance of mice in the human lung cancer NCI-H460 model
[2] = cited from earlier work
[3] = test system: human lung cancer NCI-H460; experiment: Pharmacodynamics in subcutaneous xenograft model of human lung cancer NCI-H460 (tumor volume, TGI); assay type: in vivo, BALB/c nude mice
Description: Measures of pharmacodynamics of AST-3424 monotherapy and combination therapy with Celecoxib were performed in a subcutaneous xenograft model of human lung cancer NCI-H460 established by using female BALB/c nude mice.
After the inoculation of tumor cell, tumor growth was routinely monitored, and tumor volume and mouse weight were measured. Evaluation of therapeutic efficiency was based on the relative tumor growth inhibition TGI (%). The specific results are shown in Table 3 and FIG. 3, and the Pharmacodynamics analysis data on Day 30 after inoculation (at the end of drug administration) are particularly given in Table 4.

[4] = read-out: Cmax converted to the molar concentration; celecoxib single dosage (200 mg) in healthy subjects
clinical = details: human, in vivo
H460 cell line [5] = experiment: In vitro cell proliferation inhibition with the drug combination (CTG method); assay type: cell-based, human; details: combined with AST-3424
Description: • a) H460 cells (human non-small lung cancer cells, AKR1C3 enzyme highly expressed) were cultured in RPMI-1640 medium, added with 10% FBS and 1% double antibody, and placed at 37° C. and 5% CO2 for culturing.
• a) The cells were routinely cultured until the cell saturation was 80%-90%, and when the required quantity was reached, the cells were collected. • b) The cells were resuspended with the corresponding medium and cell counts were performed to prepare a cell suspension with appropriate density. • c) The cell suspension was added to a 96-well plate with 100 μL per well, and the cell density was 2,000 cells per well. • d) The cells were incubated overnight in an incubator at 37° C. with 5% CO2. 1.1.3 Treating Cells with Compound (72 Hours)
AST-3424 alone: after 24 hours of cell seeding, AST-3424 was administered alone. Specifically, each well was supplemented with 99 μL of growth medium, and then added with 1 μL of the prepared AST-3424 solution to form different concentrations of AST-3424. The plate was shaken gently to ensure uniform mixing, and placed in an incubator at 37° C. with 5% CO2.
The cell plates were placed in the incubator for 72 hours.
1.1.4 Treating Cells with Compound (2 Hours) • a) Administrating single drug: after 24 hours of cell seeding, AST-3424 was administered alone. Specifically, each well was supplemented with 99 μL of growth medium, and then added with 1 μL of the prepared AST-3424 solution to form different concentrations of AST-3424. The plate was shaken gently to ensure uniform mixing, and placed in the incubator for 2 hours. […] The plate was shaken gently to ensure uniform mixing. After the plate was placed in the incubator for 2 hours, 1 μL of the prepared AST-3424 solution was added to form different concentrations of AST-3424. The plate was shaken gently to ensure uniform mixing, and placed in the incubator at 37° C. with 5% CO2 for another 2 hours. Then, the supernatant was discarded, and the remainder was washed twice with growth medium and added with 200 μL of fresh medium.
1.1.6 Detecting with CTG Method • a) The cell plate to be tested was placed at room temperature to equilibrium for 30 minutes, and 100 μL of culture medium was discarded from each well. • b) 25 μL CTG reagent (CelltiterGlo kit) was added to each well. The plate was placed on a fast shaker to shake for 2 minutes, and then placed at room temperature away from light for 30 minutes. • c) The chemiluminescent signal value was read with multifunctional microplate reader at reading time of 1000 ms.
IC50 was calculated with GraphPad Prism 5 software, and the IC50 (half maximal inhibitory concentration) of the compound was obtained using the following nonlinear fitting formula: […]

AKR1C3 = details: reported in literature; cited from earlier work
H460 cell line [6] = experiment: Cell proliferation inhibition by combining Naproxen or TH-3021 and AST-3424 in different sequence of administration (CTG); assay type: cell-based, human; details: for effect of subsequent addition on the efficacy of AST-3424: Group 3: added after 2 h AST-3424 pretreatment and washing
Description: The following are the different treatment methods. […] The plate was shaken gently to ensure uniform mixing, and placed in the incubator for 2 hours. […] The plate was shaken gently to ensure uniform mixing, and placed in the incubator for 2 hours. Subsequently, the plate was washed to remove the compound, and placed in the incubator at 37° C. with 5% CO2 for further 72 hours. […] The plate was shaken gently to ensure uniform mixing, and placed in the incubator for 2 hours. Subsequently, the plate was washed to remove the compounds, and placed in the incubator at 37° C. with 5% CO2 for 72 hours. […] The plate was shaken gently to ensure uniform mixing, and placed in the incubator for 2 hours. […] The plate was shaken gently to ensure uniform mixing, and placed in the incubator for 2 hours. Subsequently, the plate was washed to remove the compounds, and placed in the incubator at 37° C. with 5% CO2 for further 72 hours. […] The plate was shaken gently to ensure uniform mixing, and placed in the incubator for 2 hours. […] The plate was shaken gently to ensure uniform mixing, and placed in the incubator for 2 hours. Subsequently, the plate was washed to remove the compounds, and placed in the incubator at 37° C. with 5% CO2 for further 72 hours. b) Administrating single drug: after 24 hours of cell seeding, the compound was administered alone. […] The plate was shaken gently to ensure uniform mixing, and placed in the incubator at 37° C. with 5% CO2 for 2 hours. Subsequently, the compound was washed off, and each well was added with fresh medium. The plate was placed in the incubator at 37° C. with 5% CO2 for further 72 hours.

[7] = Group 2: Celecoxib 50 mg/kg QD×15 p.o., Day 37 after the inoculation of tumor cell
[8] = Group 3: Celecoxib 100 mg/kg QD×15 p.o., Day 37 after the inoculation of tumor cell
[9] = Group 2: Celecoxib 50 mg/kg QD×15 p.o., Day 30 after inoculation
[10] = Group 3: Celecoxib 100 mg/kg QD×15 p.o., Day 30 after inoculation

Compound: Cc1ccc(-c2cc(C(F)(F)F)nn2-c2ccc(S(N)(=O)=O)cc2)cc1 [Celecoxib]
- Mean body weight g (x ± S) ([1]; Group 2: Celecoxib 50 mg/kg QD×15 p.o., Day 9 after the inoculation of tumor cell): 24.8 ± 0.5 g
- Change of body weight (%) [1, 7]: 4.05%
- Mean body weight g (x ± S) [1, 7]: 25.8 ± 0.4 g
- Mean body weight g (x ± S) ([1]; Group 3: Celecoxib 100 mg/kg QD×15 p.o., Day 9 after the inoculation of tumor cell): 25.2 ± 0.5 g
- Change of body weight (%) [1, 8]: 2.28%
- Mean body weight g (x ± S) [1, 8]: 25.8 ± 0.6 g
- Cmax ([2]; celecoxib single dosage (200 mg) in healthy subjects, drug instructions): 705 ng/mL
- Tumor volume (x ± S) ([3]; Group 2: Celecoxib 50 mg/kg QD×15 p.o., Day 9 after cell inoculation): 145.68 ± 12.36 mm^3
- Tumor volume (x ± S) ([3]; Group 2: Celecoxib 50 mg/kg QD×15 p.o., Day 12 after cell inoculation): 162.55 ± 9.74 mm^3
- Tumor volume (x ± S) ([3]; Group 2: Celecoxib 50 mg/kg QD×15 p.o., Day 16 after cell inoculation): 175.22 ± 11.61 mm^3
- Tumor volume (x ± S) ([3]; Group 2: Celecoxib 50 mg/kg QD×15 p.o., Day 19 after cell inoculation): 214.83 ± 26.19 mm^3
- Tumor volume (x ± S) ([3]; Group 2: Celecoxib 50 mg/kg QD×15 p.o., Day 23 after cell inoculation): 361.15 ± 68.57 mm^3
- Tumor volume (x ± S) ([3]; Group 2: Celecoxib 50 mg/kg QD×15 p.o., Day 26 after cell inoculation): 471.39 ± 90.94 mm^3
- Tumor volume (x ± S) ([3]; Group 2: Celecoxib 50 mg/kg QD×15 p.o., Day 30 after cell inoculation): 577.49 ± 102.95 mm^3
- Relative tumor volume (x ± S) [3, 9]: 3.91 ± 0.45
- T/C (%) [3, 9]: 70.13%
- TGI (%) [3, 9]: 29.87%
- Tumor volume (x ± S) ([3]; Group 2: Celecoxib 50 mg/kg QD×15 p.o., Day 30 after inoculation, in mm³): 577.49 ± 102.95
- Tumor volume (x ± S) ([3]; Group 2: Celecoxib 50 mg/kg QD×15 p.o., Day 33 after cell inoculation): 655.39 ± 126.55 mm^3
- Tumor volume (x ± S) ([3]; Group 2: Celecoxib 50 mg/kg QD×15 p.o., Day 37 after cell inoculation): 1053.12 ± 274.37 mm^3
- Tumor volume (x ± S) ([3]; Group 3: Celecoxib 100 mg/kg QD×15 p.o., Day 9 after cell inoculation): 144.13 ± 11.94 mm^3
- Tumor volume (x ± S) ([3]; Group 3: Celecoxib 100 mg/kg QD×15 p.o., Day 12 after cell inoculation): 166.97 ± 17.80 mm^3
- Tumor volume (x ± S) ([3]; Group 3: Celecoxib 100 mg/kg QD×15 p.o., Day 16 after cell inoculation): 233.79 ± 48.62 mm^3
- Tumor volume (x ± S) ([3]; Group 3: Celecoxib 100 mg/kg QD×15 p.o., Day 19 after cell inoculation): 331.06 ± 73.94 mm^3
- Tumor volume (x ± S) ([3]; Group 3: Celecoxib 100 mg/kg QD×15 p.o., Day 23 after cell inoculation): 479.72 ± 117.21 mm^3
- Tumor volume (x ± S) ([3]; Group 3: Celecoxib 100 mg/kg QD×15 p.o., Day 26 after cell inoculation): 581.86 ± 130.92 mm^3
- Tumor volume (x ± S) ([3]; Group 3: Celecoxib 100 mg/kg QD×15 p.o., Day 30 after cell inoculation): 730.52 ± 183.64 mm^3
- Relative tumor volume (x ± S) [3, 10]: 4.86 ± 0.82
- T/C (%) [3, 10]: 87.16%
- TGI (%) [3, 10]: 12.84%
- Tumor volume (x ± S) ([3]; Group 3: Celecoxib 100 mg/kg QD×15 p.o., Day 30 after inoculation, in mm³): 730.52 ± 183.64
- Tumor volume (x ± S) ([3]; Group 3: Celecoxib 100 mg/kg QD×15 p.o., Day 33 after cell inoculation): 867.83 ± 225.15 mm^3
- Tumor volume (x ± S) ([3]; Group 3: Celecoxib 100 mg/kg QD×15 p.o., Day 37 after cell inoculation): 1459.88 ± 505.50 mm^3
- Cmax [4]: 1.85 µM

- Cmax (clinical): 94 µM
Compound: CC(C)Cc1ccc(C(C)C(=O)O)cc1 (stereo not drawn) [Ibuprofen]
- effect of the combination on the cell proliferation inhibitory activity of AST-3424 (H460 cell line [5]): almost no effect
- Cmax ([2]; ibuprofen reference preparation, single dose, fasting, healthy Chinese subjects): 19400 ng/mL
- AKR1C3 inhibitory activity (AKR1C3): have AKR1C3 inhibitory activity

Compound: COc1ccc2cc([C@H](C)C(=O)O)ccc2c1 [Naproxen, reference compound]
- effect of the combination on the cell proliferation inhibitory activity of AST-3424 (H460 cell line [5]): significantly affect
- AKR1C3 inhibitory activity (AKR1C3): have AKR1C3 inhibitory activity
- effect of subsequent addition on the efficacy of AST-3424 (H460 cell line [6]): no longer affected the efficacy of AST-3424

Compound: O=C(N1CCOCC1)N1CCN(c2ccc(Cl)cc2Cl)CC1 [TH-3021, reference compound]
- AKR1C3 inhibitory activity (AKR1C3): specific inhibitor of AKR1C3
- effect of subsequent addition on the efficacy of AST-3424 (H460 cell line [6]): no longer affected the efficacy of AST-3424
- difference in IC50 values of AST-3424 (fold) (H460 cell line [6]; group 1 (TH-3021 pretreatment, washed off)): 6 fold
- difference in IC50 values of AST-3424 (fold) (H460 cell line [6]; groups 2 and 4 (TH-3021 present together with AST-3424)): 200 fold
